Seven molecules from patent US20240293551A1, “USE OF ST-TYPE LIPID COMPOUNDS IN PREPARATION OF NUCLEIC ACID DELIVERY REAGENT AND RELATED PRODUCT” (INSTITUTE OF BASIC MEDICAL SCIENCES CHINESE ACADEMY OF …, priority 2021, published 2024) can be followed below.

The subject of this test is PGY-sRNA-26. As to the kind of experiment: In vivo delivery study of lipid-nucleic acid mixture (oral gavage, RT-qPCR of PGY-sRNA-26 in tissues). The following applies: C57BL/6 mice, gavage, 100 μg lipid: 10 nmol PGY-sRNA-26, 12 hours; for delivery efficacy over each tissue and blood tested (broad-spectrum delivery): all tissues and blood tested; for oral delivery of single-stranded sRNA nucleic acids into mouse intestinal tissue: intestine. On the set-up: species or system mouse. A digest of the protocol: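 C57BL/6 male mice (~6 weeks, 20-24 g), fasted 12 h, were gavaged with 10 nmol 3′-methylated PGY-sRNA-26 mixed with 100 μg lipid (heated 90° C. 15 min), versus saline or free sRNA (n=4 each). After 12 h, blood and tissues were Trizol-extracted; sRNA quantified by stem-loop RT-qPCR relative to U6.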

`CC(=O)[C@H]1CC[C@H]2[C@@H]3CCC4=CC(=O)CC[C@]4(C)[C@H]3CC[C@]12C` [Lipid 575]: the “delivery efficacy over each tissue and blood tested (broad-spectrum delivery)” value is given as “exhibited the best delivery efficacy”; the “oral delivery of single-stranded sRNA nucleic acids into mouse blood” value was “can effectively orally deliver”; the “oral delivery of single-stranded sRNA nucleic acids into mouse brain tissue” value is “can effectively orally deliver”; the “oral delivery of single-stranded sRNA nucleic acids into mouse femur” value is on record as “can effectively orally deliver”. Besides, the “oral delivery of single-stranded sRNA nucleic acids into mouse heart tissue” value is on record as “can effectively orally deliver”, the “oral delivery of single-stranded sRNA nucleic acids into mouse intestinal tissue” value is reported as “can effectively orally deliver”, the “oral delivery of single-stranded sRNA nucleic acids into mouse kidney tissue” value is recorded as “can effectively orally deliver” and the “oral delivery of single-stranded sRNA nucleic acids into mouse liver tissue” value is listed as “can effectively orally deliver”. The “oral delivery of single-stranded sRNA nucleic acids into mouse lung tissue” value is on record as “can effectively orally deliver”, the “oral delivery of single-stranded sRNA nucleic acids into mouse spleen tissue” value is given as “can effectively orally deliver” and the “oral delivery of single-stranded sRNA nucleic acids into mouse stomach tissue” value is “can effectively orally deliver”.

Take `C[C@@H]1O[C@@H](O[C@H]2C[C@@H](O)[C@]3(CO)[C@H]4[C@H](O)C[C@]5(C)[C@@H](C6=CC(=O)OC6)CC[C@]5(O)[C@@H]4CC[C@]3(O)C2)[C@H](O)[C@H](O)[C@H]1O` [Lipid 550]: the “delivery efficacy over each tissue and blood tested (broad-spectrum delivery)” value is on record as “exhibited the best delivery efficacy”; the “oral delivery of single-stranded sRNA nucleic acids into mouse blood” value is recorded as “can effectively orally deliver”; the “oral delivery of single-stranded sRNA nucleic acids into mouse brain tissue” value is “can effectively orally deliver”; the “oral delivery of single-stranded sRNA nucleic acids into mouse femur” value is “can effectively orally deliver”. The “oral delivery of single-stranded sRNA nucleic acids into mouse heart tissue” value is given as “can effectively orally deliver”, the “oral delivery of single-stranded sRNA nucleic acids into mouse intestinal tissue” value was “can effectively orally deliver”, the “oral delivery of single-stranded sRNA nucleic acids into mouse kidney tissue” value is “can effectively orally deliver” and the “oral delivery of single-stranded sRNA nucleic acids into mouse liver tissue” value is “can effectively orally deliver”. Besides, the “oral delivery of single-stranded sRNA nucleic acids into mouse lung tissue” value is “can effectively orally deliver”, the “oral delivery of single-stranded sRNA nucleic acids into mouse spleen tissue” value is on record as “can effectively orally deliver” and the “oral delivery of single-stranded sRNA nucleic acids into mouse stomach tissue” value is “can effectively orally deliver”.

Take `CC(C)[C@H](C)[C@@H](O)[C@H](O)[C@@H](C)[C@H]1CC[C@H]2[C@@H]3COC(=O)[C@H]4C[C@H](O)[C@H](O)C[C@]4(C)[C@H]3CC[C@]12C` [Lipid 508]: the “delivery efficacy over each tissue and blood tested (broad-spectrum delivery)” value is “exhibited the best delivery efficacy”; the “oral delivery of single-stranded sRNA nucleic acids into mouse blood” value was “can effectively orally deliver”; the “oral delivery of single-stranded sRNA nucleic acids into mouse brain tissue” value was “can effectively orally deliver”; the “oral delivery of single-stranded sRNA nucleic acids into mouse heart tissue” value is “can effectively orally deliver”. The “oral delivery of single-stranded sRNA nucleic acids into mouse intestinal tissue” value is “can effectively orally deliver”, the “oral delivery of single-stranded sRNA nucleic acids into mouse kidney tissue” value is on record as “can effectively orally deliver”, the “oral delivery of single-stranded sRNA nucleic acids into mouse liver tissue” value is on record as “can effectively orally deliver” and the “oral delivery of single-stranded sRNA nucleic acids into mouse lung tissue” value was “can effectively orally deliver”. The “oral delivery of single-stranded sRNA nucleic acids into mouse spleen tissue” value is “can effectively orally deliver” and the “oral delivery of single-stranded sRNA nucleic acids into mouse stomach tissue” value was “can effectively orally deliver”.

Turning to `C=C1CC[C@H](O)C/C1=C/C=C1\CCC[C@]2(C)[C@@H]([C@H](C)CCCC(C)(C)O)CC[C@@H]12` [Lipid 571], the “oral delivery of single-stranded sRNA nucleic acids into mouse blood” value is recorded as “can effectively orally deliver”, the “oral delivery of single-stranded sRNA nucleic acids into mouse brain tissue” value is “can effectively orally deliver”, the “oral delivery of single-stranded sRNA nucleic acids into mouse femur” value is listed as “can effectively orally deliver” and the “oral delivery of single-stranded sRNA nucleic acids into mouse heart tissue” value was “can effectively orally deliver”. In addition, the “oral delivery of single-stranded sRNA nucleic acids into mouse intestinal tissue” value is given as “can effectively orally deliver”, the “oral delivery of single-stranded sRNA nucleic acids into mouse kidney tissue” value was “can effectively orally deliver”, the “oral delivery of single-stranded sRNA nucleic acids into mouse liver tissue” value is “can effectively orally deliver” and the “oral delivery of single-stranded sRNA nucleic acids into mouse lung tissue” value is on record as “can effectively orally deliver”. The “oral delivery of single-stranded sRNA nucleic acids into mouse spleen tissue” value is on record as “can effectively orally deliver” and the “oral delivery of single-stranded sRNA nucleic acids into mouse stomach tissue” value is “can effectively orally deliver”.

With `C[C@H](CCC(=O)O)[C@H]1CC[C@H]2[C@@H]3C(=O)C[C@@H]4C[C@H](O)CC[C@]4(C)[C@H]3CC[C@]12C` [Lipid 586], the “oral delivery of single-stranded sRNA nucleic acids into mouse blood” value is on record as “can effectively orally deliver”, the “oral delivery of single-stranded sRNA nucleic acids into mouse brain tissue” value was “can effectively orally deliver”, the “oral delivery of single-stranded sRNA nucleic acids into mouse femur” value is reported as “can effectively orally deliver” and the “oral delivery of single-stranded sRNA nucleic acids into mouse heart tissue” value was “can effectively orally deliver”. The “oral delivery of single-stranded sRNA nucleic acids into mouse intestinal tissue” value is given as “can effectively orally deliver”, the “oral delivery of single-stranded sRNA nucleic acids into mouse kidney tissue” value is “can effectively orally deliver”, the “oral delivery of single-stranded sRNA nucleic acids into mouse liver tissue” value is recorded as “can effectively orally deliver” and the “oral delivery of single-stranded sRNA nucleic acids into mouse spleen tissue” value is on record as “can effectively orally deliver”. In addition, the “oral delivery of single-stranded sRNA nucleic acids into mouse stomach tissue” value is on record as “can effectively orally deliver”.

Take `C[C@]12CC[C@@H](O)C[C@@H]1CC[C@@H]1[C@@H]2CC[C@]2(C)C(=O)CC[C@@H]12` [Lipid 563]: the “delivery efficacy over each tissue and blood tested (broad-spectrum delivery)” value is recorded as “exhibited the best delivery efficacy”; the “oral delivery of single-stranded sRNA nucleic acids into mouse blood” value is “can effectively orally deliver”; the “oral delivery of single-stranded sRNA nucleic acids into mouse brain tissue” value was “can effectively orally deliver”; the “oral delivery of single-stranded sRNA nucleic acids into mouse femur” value was “can effectively orally deliver”. Moreover, the “oral delivery of single-stranded sRNA nucleic acids into mouse heart tissue” value is “can effectively orally deliver”, the “oral delivery of single-stranded sRNA nucleic acids into mouse intestinal tissue” value was “can effectively orally deliver”, the “oral delivery of single-stranded sRNA nucleic acids into mouse kidney tissue” value is “can effectively orally deliver” and the “oral delivery of single-stranded sRNA nucleic acids into mouse liver tissue” value was “can effectively orally deliver”. The “oral delivery of single-stranded sRNA nucleic acids into mouse lung tissue” value is “can effectively orally deliver”, the “oral delivery of single-stranded sRNA nucleic acids into mouse spleen tissue” value is recorded as “can effectively orally deliver” and the “oral delivery of single-stranded sRNA nucleic acids into mouse stomach tissue” value is “can effectively orally deliver”.

Take `C[C@]12CC[C@H](O)C[C@@H]1CC[C@@H]1[C@@H]2CC[C@]2(C)[C@@H](O)CC[C@@H]12` [Lipid 548, 5α-androstanediol (3S,5S,8R,9S,10S,13S,14S,17S)-10,13-dimethyl-2,3,4,5,6,7,8,9,11,12,14,15,16,17-tetradecahydro-1H-cyclopenta[a]phenanthrene-3,17-diol]: the “delivery efficacy over each tissue and blood tested (broad-spectrum delivery)” value was “exhibited the best delivery efficacy”; the “oral delivery of single-stranded sRNA nucleic acids into mouse blood” value is “can effectively orally deliver”; the “oral delivery of single-stranded sRNA nucleic acids into mouse brain tissue” value is reported as “can effectively orally deliver”; the “oral delivery of single-stranded sRNA nucleic acids into mouse femur” value is “can effectively orally deliver”. Moreover, the “oral delivery of single-stranded sRNA nucleic acids into mouse heart tissue” value was “can effectively orally deliver”, the “oral delivery of single-stranded sRNA nucleic acids into mouse intestinal tissue” value is recorded as “can effectively orally deliver”, the “oral delivery of single-stranded sRNA nucleic acids into mouse kidney tissue” value was “can effectively orally deliver” and the “oral delivery of single-stranded sRNA nucleic acids into mouse liver tissue” value is listed as “can effectively orally deliver”. Besides, the “oral delivery of single-stranded sRNA nucleic acids into mouse lung tissue” value is “can effectively orally deliver”, the “oral delivery of single-stranded sRNA nucleic acids into mouse spleen tissue” value is recorded as “can effectively orally deliver” and the “oral delivery of single-stranded sRNA nucleic acids into mouse stomach tissue” value is recorded as “can effectively orally deliver”.
